Experimental data as given in patent US20260217767A1, “NOVEL A4B7 THIOETHER PEPTIDE DIMER ANTAGONISTS” (Protagonist Therapeutics, Inc., priority 2014, published 2026).
*1 amine or outer side, *2 acyl side, *3 side chain or, on linkers, in order; H or OH if unused. Where a SMILES comes first, the peptide text is derived from it. Bridges are numbered along the chain shown (N, C = ends). Roman numbers before positions name the chains, in order. [ ]: non-standard residue; d: D form. Bip = N[C@@H](Cc1ccc(-c2ccccc2)cc1)C(=O)O; 1Nal = N[C@@H](Cc1cccc2ccccc12)C(=O)O; Diglycolyl = O=C(COCC(=O)[*:2])[*:1]; NMeR = CN[C@@H](CCCNC(=N)N)C(=O)O; Tic = O=C(O)[C@@H]1Cc2ccccc2CN1; X1 = O=C(c1ccccc1C[*:2])[*:1]; Pen = CC(C)(S)[C@H](N)C(=O)O

Each compound was assayed against T1, rh integrin α4β7 (Homo sapiens, UniProt P13612+P26010) (assay: α4β7-MAdCAM Competition ELISA). Conditions: thioether monomer peptides, Table 6; read-out: ELISA A4B7.
T1 construct: purchased R&D Systems 5397-A30
T1 sequence (P13612 34-977 limits assumed): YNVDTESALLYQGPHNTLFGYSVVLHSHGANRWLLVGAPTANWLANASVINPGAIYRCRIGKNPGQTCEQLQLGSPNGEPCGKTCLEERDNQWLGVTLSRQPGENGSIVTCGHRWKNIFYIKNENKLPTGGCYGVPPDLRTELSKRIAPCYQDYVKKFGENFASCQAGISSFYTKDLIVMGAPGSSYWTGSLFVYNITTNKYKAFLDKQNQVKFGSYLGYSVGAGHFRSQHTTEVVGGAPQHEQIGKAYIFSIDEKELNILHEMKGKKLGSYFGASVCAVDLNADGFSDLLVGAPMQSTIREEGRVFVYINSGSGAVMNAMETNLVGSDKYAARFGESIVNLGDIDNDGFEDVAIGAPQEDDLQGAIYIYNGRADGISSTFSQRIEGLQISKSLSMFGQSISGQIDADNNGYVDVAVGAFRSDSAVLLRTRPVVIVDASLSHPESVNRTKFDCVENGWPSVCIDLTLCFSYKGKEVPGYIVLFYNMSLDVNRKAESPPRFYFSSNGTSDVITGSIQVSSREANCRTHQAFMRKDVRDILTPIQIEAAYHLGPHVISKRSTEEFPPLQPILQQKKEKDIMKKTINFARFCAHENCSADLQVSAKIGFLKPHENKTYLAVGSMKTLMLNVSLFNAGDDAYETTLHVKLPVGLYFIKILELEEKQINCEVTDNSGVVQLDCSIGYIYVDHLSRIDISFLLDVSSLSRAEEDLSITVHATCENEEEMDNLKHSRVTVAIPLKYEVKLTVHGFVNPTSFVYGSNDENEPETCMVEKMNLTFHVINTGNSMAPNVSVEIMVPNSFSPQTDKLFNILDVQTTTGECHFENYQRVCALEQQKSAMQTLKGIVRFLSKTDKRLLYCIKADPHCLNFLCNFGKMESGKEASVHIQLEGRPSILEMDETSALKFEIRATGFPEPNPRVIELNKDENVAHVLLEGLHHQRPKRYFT
T1 sequence (P26010 20-723 limits assumed): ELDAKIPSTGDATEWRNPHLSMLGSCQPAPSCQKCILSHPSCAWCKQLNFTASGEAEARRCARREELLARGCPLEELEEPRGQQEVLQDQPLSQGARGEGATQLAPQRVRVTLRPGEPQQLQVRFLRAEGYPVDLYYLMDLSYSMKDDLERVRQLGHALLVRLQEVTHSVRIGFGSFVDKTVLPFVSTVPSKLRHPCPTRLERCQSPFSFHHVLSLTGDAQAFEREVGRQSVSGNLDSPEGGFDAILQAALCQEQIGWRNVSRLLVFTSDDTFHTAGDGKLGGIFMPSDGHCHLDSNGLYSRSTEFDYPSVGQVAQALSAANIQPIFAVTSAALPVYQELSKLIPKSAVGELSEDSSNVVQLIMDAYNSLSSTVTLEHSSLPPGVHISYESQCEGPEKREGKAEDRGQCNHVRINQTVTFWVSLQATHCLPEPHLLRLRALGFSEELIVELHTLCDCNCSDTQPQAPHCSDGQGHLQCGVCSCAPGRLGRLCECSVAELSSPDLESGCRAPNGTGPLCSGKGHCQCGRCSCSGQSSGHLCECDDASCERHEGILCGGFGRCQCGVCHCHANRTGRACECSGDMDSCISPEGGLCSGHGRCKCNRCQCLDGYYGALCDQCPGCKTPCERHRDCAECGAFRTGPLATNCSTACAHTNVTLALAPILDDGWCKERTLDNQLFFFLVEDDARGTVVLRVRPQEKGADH
Format: binding
Summary of the method: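 Recombinant human α4β7 captured on nickel-coated plates, then incubated 1 h at room temperature with serially diluted peptides (final top 10 μM) and 10 nM final MAdCAM-1 in Tris pH 7.6 buffer with 1 mM MnCl2 or MgCl2. Bound MAdCAM-1 detected with anti-human IgG1-HRP and TMB, absorbance at 450 nm.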
`CC(=O)NCCCC[C@@H](NC(=O)[C@H](CCC(=O)O)NC(=O)[C@H](Cc1cccc2ccccc12)NC(=O)[C@H]1NC(=O)[C@H](CC(C)C)NC(=O)[C@H]([C@@H](C)O)NC(=O)[C@H](CC(=O)O)NC(=O)[C@H](CO)NC(=O)[C@H](CCCNC(=N)N)N(C)C(=O)c2ccccc2CSC1(C)C)C(N)=O` [compound 89] (HELM PEPTIDE1{[meR].S.D.T.L.[Pen].[O=C([C@H](Cc1cccc2ccccc12)N[*:1])[*:2]].E.[dK].[am]}|PEPTIDE2{[ac]}|CHEM1{[O=C(c1ccccc1C[*:2])[*:1]]}$PEPTIDE1,PEPTIDE2,9:R3-1:R2|PEPTIDE1,CHEM1,1:R1-1:R1|PEPTIDE1,CHEM1,6:R3-1:R2$$$V2.0) was tested, and the IC50 was less than 0.025 µM.
`CC(C)C[C@@H]1NC(=O)[C@H]([C@@H](C)O)NC(=O)[C@H](CC(=O)O)NC(=O)[C@H](CO)NC(=O)[C@H](CCCNC(=N)N)N(C)C(=O)c2ccccc2CSC(C)(C)[C@@H](C(=O)N[C@@H](Cc2ccc3ccccc3c2)C(=O)N[C@H](CCC(=O)O)C(N)=O)NC1=O` [compound 114] (HELM PEPTIDE1{[meR].S.D.T.L.[Pen].[O=C([C@H](Cc1ccc2ccccc2c1)N[*:1])[*:2]].[dE].[am]}|CHEM1{[O=C(c1ccccc1C[*:2])[*:1]]}$PEPTIDE1,CHEM1,1:R1-1:R1|PEPTIDE1,CHEM1,6:R3-1:R2$$$V2.0) was tested, and the IC50 was less than 0.025 µM.
With `CC(C)C[C@@H]1NC(=O)[C@H]([C@@H](C)O)NC(=O)[C@H](CC(=O)O)NC(=O)[C@H](CO)NC(=O)[C@H](CCCNC(=N)N)N(C)C(=O)c2ccccc2CSC(C)(C)[C@@H](C(=O)N[C@@H](Cc2c[nH]c3ccccc23)C(=O)N[C@H](CCC(=O)O)C(=O)N[C@@H](CN)C(N)=O)NC1=O` [compound 94] (HELM PEPTIDE1{[meR].S.D.T.L.[Pen].W.[dE].[NC[C@H](N[*:1])C(=O)[*:2]].[am]}|CHEM1{[O=C(c1ccccc1C[*:2])[*:1]]}$PEPTIDE1,CHEM1,1:R1-1:R1|PEPTIDE1,CHEM1,6:R3-1:R2$$$V2.0) the IC50 was less than 0.025 µM.
Compound `CC(C)C[C@@H]1NC(=O)[C@H]([C@@H](C)O)NC(=O)[C@H](CC(=O)O)NC(=O)[C@H](CO)NC(=O)[C@H](CCCNC(=N)N)N(C)C(=O)c2ccccc2CSC(C)(C)[C@@H](C(=O)N[C@@H](Cc2c[nH]c3ccccc23)C(=O)N[C@H](CCC(=O)O)C(=O)N[C@H](CCC(=O)O)C(N)=O)NC1=O` [compound 108] (HELM PEPTIDE1{[meR].S.D.T.L.[Pen].W.[dE].[dE].[am]}|CHEM1{[O=C(c1ccccc1C[*:2])[*:1]]}$PEPTIDE1,CHEM1,1:R1-1:R1|PEPTIDE1,CHEM1,6:R3-1:R2$$$V2.0) has an IC50 of less than 0.025 µM.
`CC(C)C[C@@H]1NC(=O)[C@H]([C@@H](C)O)NC(=O)[C@H](CC(=O)O)NC(=O)[C@H](CO)NC(=O)[C@H](CCCNC(=N)N)N(C)C(=O)c2ccccc2CSC[C@@H](C(=O)N[C@@H](Cc2c[nH]c3ccccc23)C(=O)N[C@@H](CCC(=O)O)C(=O)N[C@H](CCCCN)C(N)=O)NC1=O` [compound 55] (HELM PEPTIDE1{[meR].S.D.T.L.C.W.E.[dK].[am]}|CHEM1{[O=C(c1ccccc1C[*:2])[*:1]]}$PEPTIDE1,CHEM1,1:R1-1:R1|PEPTIDE1,CHEM1,6:R3-1:R2$$$V2.0) gave an IC50 of less than 0.025 µM.
Work on `CC(C)C[C@@H]1NC(=O)[C@H]([C@@H](C)O)NC(=O)[C@H](CC(=O)O)NC(=O)[C@H](CO)NC(=O)[C@H](CCCNC(=N)N)N(C)C(=O)c2ccccc2CSC(C)(C)[C@@H](C(=O)N[C@@H](Cc2c[nH]c3ccccc23)C(=O)N[C@H](CCC(=O)O)C(=O)N[C@H](Cc2ccccc2)C(N)=O)NC1=O` [compound 107] (HELM PEPTIDE1{[meR].S.D.T.L.[Pen].W.[dE].[dF].[am]}|CHEM1{[O=C(c1ccccc1C[*:2])[*:1]]}$PEPTIDE1,CHEM1,1:R1-1:R1|PEPTIDE1,CHEM1,6:R3-1:R2$$$V2.0) yielded an IC50 of less than 0.025 µM.

Same assay, conditions: thioether peptide dimers, Table 7; read-out: ELISA A4B7
With `CC(C)C[C@@H]1NC(=O)[C@H]([C@@H](C)O)NC(=O)[C@H](CC(=O)O)NC(=O)[C@H](CO)NC(=O)[C@H](CCCNC(=N)N)N(C)C(=O)c2ccccc2CSC[C@@H](C(=O)N2Cc3ccccc3C[C@H]2C(=O)N[C@H](CCC(=O)O)C(=O)N[C@H](CCCCNC(=O)COCC(=O)NCCCC[C@@H](NC(=O)[C@@H](CCC(=O)O)NC(=O)[C@@H]2Cc3ccccc3CN2C(=O)[C@@H]2CSCc3ccccc3C(=O)N(C)[C@@H](CCCNC(=N)N)C(=O)N[C@@H](CO)C(=O)N[C@@H](CC(=O)O)C(=O)N[C@@H]([C@@H](C)O)C(=O)N[C@@H](CC(C)C)C(=O)N2)C(N)=O)C(N)=O)NC1=O` [compound 184] (I: [NMeR]SDTLC[Tic][dE][dK]-NH2 / II: [NMeR]SDTLC[Tic][dE][dK]-NH2; linker I:9-II:9 via Diglycolyl; linker I:N-I:6, II:N-II:6 via X1) the IC50 was less than 0.025 µM.
With `CC(C)C[C@@H]1NC(=O)[C@H]([C@@H](C)O)NC(=O)[C@H](CC(=O)O)NC(=O)[C@H](CO)NC(=O)[C@H](CCCNC(=N)N)N(C)C(=O)C(C)SC[C@@H](C(=O)N[C@@H](Cc2c[nH]c3ccccc23)C(=O)N[C@H](CCCCN)C(N)=O)NC1=O` (single isomer, unassigned) [compound 144] the IC50 was less than 0.025 µM.
With `CC(C)C[C@@H]1NC(=O)[C@H]([C@@H](C)O)NC(=O)[C@H](CC(=O)O)NC(=O)[C@H](CO)NC(=O)[C@H](CCCNC(=N)N)N(C)C(=O)c2ccccc2CSC(C)(C)[C@@H](C(=O)N[C@@H](Cc2cccc3ccccc23)C(=O)N[C@H](CCC(=O)O)C(=O)N[C@H](CCCCNC(=O)COCC(=O)NCCCC[C@@H](NC(=O)[C@@H](CCC(=O)O)NC(=O)[C@H](Cc2cccc3ccccc23)NC(=O)[C@H]2NC(=O)[C@H](CC(C)C)NC(=O)[C@H]([C@@H](C)O)NC(=O)[C@H](CC(=O)O)NC(=O)[C@H](CO)NC(=O)[C@H](CCCNC(=N)N)N(C)C(=O)c3ccccc3CSC2(C)C)C(N)=O)C(N)=O)NC1=O` [compound 158] (I: [NMeR]SDTL[Pen][1Nal][dE][dK]-NH2 / II: [NMeR]SDTL[Pen][1Nal][dE][dK]-NH2; linker I:9-II:9 via Diglycolyl; linker I:N-I:6, II:N-II:6 via X1) the IC50 was less than 0.025 µM.
For `CC(C)C[C@@H]1NC(=O)[C@H]([C@@H](C)O)NC(=O)[C@H](CC(=O)O)NC(=O)[C@H](CO)NC(=O)[C@H](CCCNC(=N)N)N(C)C(=O)c2ccccc2CSC(C)(C)[C@@H](C(=O)N[C@@H](Cc2ccc(-c3ccccc3)cc2)C(=O)N[C@H](CCC(=O)O)C(=O)N[C@H](CCCCNC(=O)COCC(=O)NCCCC[C@@H](NC(=O)[C@@H](CCC(=O)O)NC(=O)[C@H](Cc2ccc(-c3ccccc3)cc2)NC(=O)[C@H]2NC(=O)[C@H](CC(C)C)NC(=O)[C@H]([C@@H](C)O)NC(=O)[C@H](CC(=O)O)NC(=O)[C@H](CO)NC(=O)[C@H](CCCNC(=N)N)N(C)C(=O)c3ccccc3CSC2(C)C)C(=O)O)C(=O)O)NC1=O` [compound 208] (I: [NMeR]SDTL[Pen][Bip][dE][dK]-OH / II: [NMeR]SDTL[Pen][Bip][dE][dK]-OH; linker I:9-II:9 via Diglycolyl; linker I:N-I:6, II:N-II:6 via X1), the IC50 was less than 0.025 µM.
